From paper PMC6689897, “Drugging an undruggable pocket on KRAS” (Proceedings of the National Academy of Sciences of the …, 2019) come the findings set out here.

For one assay, the target named is T1, GTP-KRASwt::PI3Kα (Homo sapiens, UniProt P01116).
T1 construct: biotin (attachment tag not described)
Nature of the assay: Alpha Screen PPI assay. In kind it is biochemical. The settings on record: duplicate, read-out: IC50 GTP-KRASwt ::PI3K. The procedure:
(§1) 221 Measurements of various protein–protein interactions were performed using the Alpha
(§2) 222 Screen technology developed by Perkin Elmer. Recombinant RAS proteins (H-, N-, K-
(§3) 223 RAS variants; all KRAS variants are based on KRAS isoform 4B (uniprot id P01116-2);
(§4) 224 KRAS (G12D) 1-169, N-terminal 6His-tag, C-terminal avi-tag was from Xtal
(§5) 225 BioStructures, Inc., KRAS (G12C) 1-169, C-terminal avi-tag, biotinylated, mutations:
(§6) 226 C51S, C80L, C118S, NRAS(wt) 1-172, C-terminal avi-tag, biotinylated; HRAS(wt) 1-
(§7) 227 166, C-terminal avi-tag, biotinylated). Biotinylation was performed in vitro with
(§8) 228 recombinant BirA biotin-protein ligase as recommended by the manufacturer (Avidity
(§9) 229 LLC, Aurora, Colorado, USA). Interacting proteins such as SOS1 (564-1049, N-terminal
(§10) 230 GST-tag, TEV cleavage site), cRaf (1-303, N-terminal GST-tag, TEV cleavage site) and
(§11) 231 PI3KA- RBD (160-317, N-term-HIS_GST-tag) were expressed as glutathione S
(§12) 232 transferase (GST) fusions. Accordingly, the Alpha Screen beads were glutathione coated
(§13) 233 Alpha Lisa acceptor beads (Perkin Elmer AL 109 R) and Alpha Screen Streptavidin
(§14) 234 conjugated donor beads (Perkin Elmer 6760002L). Nucleotides were purchased from
(§15) 236 interaction assays were carried out in PBS, containing 0.1% bovine serum albumin,
(§16) 237 0,05% Tween-20 and 10 µM of the corresponding nucleotide. Assays were carried out in
(§17) 238 white ProxiPlate-384 Plus plates (Perkin Elmer #6008280) in a final volume of 20 µL. In
(§18) 239 brief, biotinylated RAS proteins (10 nM final concentration) and GST-SOS1, GST-PI3K
(§19) 240 or GST-CRAF (10 nM final) were mixed with glutathione acceptor beads (5 µg/mL final
(§20) 241 concentration) in buffer, containing the corresponding nucleotides (GDP or GTP for
(§21) 242 assays containing SOS1, only GTP for interaction assays containing PI3K or CRAF) and
(§22) 243 were incubated for 30 min at room temperature. After addition of streptavidin donor
(§23) 244 beads (5 µg/mL final concentration) under green light, the mixture was further incubated
(§24) 245 for 60 min in the dark at room temperature. Single oxygen induced fluorescence was
(§25) 246 measured at an Enspire multimode plate reader (Perkin Elmer) according to the
(§26) 247 manufacturer’s recommendations. […]

Assay [1] has as its target T2, GTP-KRASwt::CRAF (Homo sapiens, UniProt P01116).
T2 construct: biotin (attachment tag not described)
Nature of the assay: Alpha Screen PPI assay. The note with it: Alpha Screen, duplicate. The format is biochemical. The procedure: as §1, §2, §3, §4, §5, §6, §7, §8, §9, §10, §11, §12, §13, §14, §15, §16, §17, §18, §19, §20, §21, §22, §23, §24, §25, §26

Assay [2] relates to GTP-KRASwt::CRAF. Nature of the assay: Alpha Screen PPI assay. In kind it is biochemical, human. The procedure: as §1, §2, §3, §4, §5, §6, §7, §8, §9, §10, §11, §12, §13, §14, §15, §16, §17, §18, §19, §20, §21, §22, §23, §24, §25, §26
The next assay concerns NCI-H358 cells. Nature of the assay: Soft agar proliferation assay in low serum. In kind it is cell-based. The note with it: Homo sapiens, soft agar and low serum conditions, read-out: EC50 antiproliferative effect. The procedure: 263 (ATCC® CCL-224™; grown in RPMI 10% FCS) and SK-MEL-28 (ATCC® HTB-
264 72™, grown in EMEM 10% FCS). Cell cultures were incubated at 37 °C and 5% CO2 in
265 a humidified atmosphere, with medium change or subcultivation 2-3 times a week.
269 Cells were lysed in 1x lysis buffer (Cell Signaling #9803) and protein concentration
270 normalized to 10µg/µL. Proteins were separated by SDS-Page and transferred to
271 Nitrocellulose membranes (BioRad) according to standard protocols. Membranes were
273 (Milipore #06-182) and Tubulin (Cell Signaling #2144) in 5% BSA in TBST blocking
274 buffer. After primary antibody incubation membranes were incubated with anti-rabbit
275 IgG secondary antibody (Dako #P0448) and detected with ECL (GE Healthcare Life
278 Compound treatment of cells
279 Synthesized or purchased (ARS 1620) compounds were dissolved in 100% DMSO and
280 stored at a concentration of 10mM at -20°C. Compounds were either serially diluted in […]
Quantification of living cells […]
291 manufacturer’s recommendation. Luminescence was read in a 2030 VICTOR X5 (Perkin […]
305 were trypsinized, counted and plated in 60 µL culture medium containing 2% FCS […]
313 added according to manufacturer’s instructions. Fluorescence intensity was determined
314 using a fluorescence reader (2030 VICTOR X5, Perkin Elmer). […]
319 MAPK pathway signaling (pERK, pAKT quantification) […]

T1 sequence (P01116 1-188 isoform P01116-2): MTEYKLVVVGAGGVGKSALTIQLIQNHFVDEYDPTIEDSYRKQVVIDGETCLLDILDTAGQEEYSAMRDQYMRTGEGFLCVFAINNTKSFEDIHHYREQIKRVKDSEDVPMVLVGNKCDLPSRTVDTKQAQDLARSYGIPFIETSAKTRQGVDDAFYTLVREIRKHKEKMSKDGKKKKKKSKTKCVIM
T2 sequence (P01116 1-188 isoform P01116-2): as above

As to `Cn1cnc(Cn2ccc3ccc(CNCc4[nH]c5ccccc5c4[C@H]4NC(=O)c5ccc(O)cc54)cc32)c1` [Compound 1], the results for the IC50 at GTP-KRASwt::PI3Kα and against GTP-KRASwt::CRAF [1] were 250 nM and 740 nM, respectively. Further, in the assay on GTP-KRASwt::CRAF [2], the “selectivity of inhibition biochemically, KRAS^wt versus KRAS^G12C binding to CRAF” value stood at 4 fold. The EC50 in the assay with NCI-H358 cells stood at 6700 nM.

As usually defined, the IC50 is the point on the concentration scale where inhibition reaches its midpoint. By EC50 is commonly meant the concentration needed to bring the measured effect to its halfway point.
